Measured values from PMC10458471, “Electrophysiological Assessment of Newly Synthesized 2,3-Benzodiazepine Derivatives for Inhibiting the AMPA Receptor Channel” (Molecules, 2023).
Like-named read-outs stand apart in the source and are kept apart here.

Columns and labels:
GluA1 = target: T1, GluA1 (Rattus norvegicus, UniProt P19490); assay: Whole-cell patch-clamp recording of homomeric GluA1 AMPAR expressed in HEK293T cells; format: cell-based; details: for Amplitude with compound: 10 mM glutamate + 16 µM compound, mean±SEM; for Amplitude with compound / A/AI (current amplitude ratio without/with compound) / t deact (weighted deactivation time constant) / t des (weighted desensitization time constant) / Amplitude, applying glutamate alone after compound: n=8; for A/AI (current amplitude ratio without/with compound): 10 mM glutamate; for t deact (weighted deactivation time constant): 1 ms 10 mM glutamate + 16 µM compound; for t des (weighted desensitization time constant): 500 ms 10 mM glutamate + 16 µM compound; for Amplitude, applying glutamate alone after compound: washout/recovery
T1 construct: expressed in transfected cells; host or cells: HEK293T
T1 sequence (P19490 19-907 isoform P19490-2 limits assumed): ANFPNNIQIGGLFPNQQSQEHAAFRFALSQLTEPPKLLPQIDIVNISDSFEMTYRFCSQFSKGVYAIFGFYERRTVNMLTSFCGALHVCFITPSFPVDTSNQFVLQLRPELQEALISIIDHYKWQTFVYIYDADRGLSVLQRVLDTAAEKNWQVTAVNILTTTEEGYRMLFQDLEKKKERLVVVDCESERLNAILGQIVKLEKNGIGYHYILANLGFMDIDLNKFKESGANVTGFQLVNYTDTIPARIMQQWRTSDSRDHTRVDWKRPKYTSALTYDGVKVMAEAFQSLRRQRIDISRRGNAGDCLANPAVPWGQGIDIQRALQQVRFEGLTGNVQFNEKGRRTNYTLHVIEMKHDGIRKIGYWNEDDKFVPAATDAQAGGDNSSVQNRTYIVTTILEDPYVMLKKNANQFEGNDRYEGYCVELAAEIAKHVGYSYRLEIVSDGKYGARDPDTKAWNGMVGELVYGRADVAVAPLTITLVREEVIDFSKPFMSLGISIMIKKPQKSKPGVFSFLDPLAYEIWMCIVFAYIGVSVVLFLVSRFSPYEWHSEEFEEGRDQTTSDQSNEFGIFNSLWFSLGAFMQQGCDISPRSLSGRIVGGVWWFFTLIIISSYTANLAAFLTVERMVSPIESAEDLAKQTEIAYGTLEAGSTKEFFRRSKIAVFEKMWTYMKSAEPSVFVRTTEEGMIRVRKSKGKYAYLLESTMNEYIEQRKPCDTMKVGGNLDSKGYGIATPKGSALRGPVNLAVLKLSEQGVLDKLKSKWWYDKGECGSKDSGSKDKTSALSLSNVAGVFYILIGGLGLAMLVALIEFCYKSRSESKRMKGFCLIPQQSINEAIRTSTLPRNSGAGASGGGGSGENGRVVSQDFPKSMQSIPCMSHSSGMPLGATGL
Experimental: (§1) For the DNA preparation, the QIAGEN Plasmid Mini Kit was used to prepare up to 20 µg of high-copy plasmid DNA [30]. All AMPAR subunits utilized in this study included the flip isoform received from S. F. Heinemann (Salk Institute, La Jolla, CA, USA) and sub-cloned in pRK for expression in Human Embryonic Kidney Cells 293 (HEK293T). The human embryonic kidney (HEK293T) cells were obtained from Sigma, Taufkirchen, Germany, and we only used the HEK293T cell line due to their ease of growth and transfection and wide utilization in cell culture. For the transfection, we used the constructs GluA1, GluA2, GluA2/3, and GluA1/2, along with the GFP-expressing construct, as described in our previous work. The transfection reagents utilized were jetPRIME (Polyplus: New York, NY, USA) or Lipofectamine 2000 (Invitrogen; San Diego, CA, USA). The highly fluorescent cells were identified and selected for recording. The selected cells were seeded in Dulbecco Modified Eagle Medium (DMEM) (Sigma, Roedermark, Germany) containing 10% FBS, 0.1 mg/mL streptomycin, and 1 mM sodium pyruvate (Biological Industries; Beit-Haemek, Israel). The cells were incubated at 37 °C with 5% CO2 added to the medium and subcultured twice a week until they reached passage #20. Following a day and a half, the cells were replated on coverslips covered with Laminin (1 mg/mL; Sigma, Roedermark, Germany) for electrophysiological recordings. Our previous work has detailed the DNA preparation, cDNA transient transfection, and cell culture of HEK293T [30, 31, 32, 33].
(§2) After that, a patch was placed in front of a rapid perfusion system comprised of a theta tube flow pipe mounted on a piezoelectric translator that was used to wash the cell continuously from one barrel while the other supplied the compound of interest to the cell. Recordings were conducted 36–48 h after transfection at 22 °C, with a membrane potential of −60 mV. Currents were amplified using an integrated patch amplifier (IPA, Sutter Instruments, Novato, CA, USA), filtered at 2 kHz, and digitized at 10 kHz using SutterPatch Software v. 1.1.1 [46]. […] The extracellular medium contained (in mM): 150 NaCl, 2.8 KCl, 0.5 MgCl2, 2 CaCl2, and 10 HEPES, pH 7.4 adjusted with NaOH. The holding potential was typically −60 mV. The sample size was determined to be eight viable cells to calculate the mean inhibition of the derivative of interest. The solution exchange time (10–90% to peak) was estimated at […] using open-tip control at the end of a recording. Inhibition was calculated by comparing the current observed when the cell was supplied with glutamate alone and when the same cell was supplied with both glutamate and the 2,3-BDZ compounds. The initial tube containing only glutamate was reintroduced to the cell to ensure cellular safety and authenticate the antagonist’s findings. This step ensured that the glutamate-induced current observed before the administration of the antagonist was nearly indistinguishable from the current observed after administration.
(§3) The experiment served two purposes: first, determining the whole-cell current amplitude ratio in the absence and presence of the compounds (A/AI) to derive a constant inhibitory value independent of the rate measurement. Second, as an independent control method, a fast exchange solution flow methodology was employed using piezoelectric actuators, providing the fastest exchange solution with open-tip current rise times in the 100–300 μs range to assess the amplitude of the whole-cell current. Detailed data analysis of this process is provided in the supporting information (Tables S1–S4).
(§4) The data acquired were analyzed using Igor Pro7 (Wave Metrics, Inc., Portland, OR, USA). Receptor desensitization (τw des) and deactivation rates were estimated by fitting the current decay starting from 95% of the peak to the baseline current using a double exponential formulation. […]

GluA2 = target: T2, GluA2 (Rattus norvegicus, UniProt P19491); assay: Whole-cell patch-clamp recording of homomeric GluA2 AMPAR expressed in HEK293T cells; format: cell-based; details: for Amplitude with compound: 10 mM glutamate + 16 µM compound, mean±SEM; for A/AI (current amplitude ratio without/with compound): 10 mM glutamate; for t deact (weighted deactivation time constant): 1 ms 10 mM glutamate + 16 µM compound; for t des (weighted desensitization time constant): 500 ms 10 mM glutamate + 16 µM compound
T2 construct: expressed in transfected cells; host or cells: HEK293T
T2 sequence (P19491 22-883 isoform P19491-2 limits assumed): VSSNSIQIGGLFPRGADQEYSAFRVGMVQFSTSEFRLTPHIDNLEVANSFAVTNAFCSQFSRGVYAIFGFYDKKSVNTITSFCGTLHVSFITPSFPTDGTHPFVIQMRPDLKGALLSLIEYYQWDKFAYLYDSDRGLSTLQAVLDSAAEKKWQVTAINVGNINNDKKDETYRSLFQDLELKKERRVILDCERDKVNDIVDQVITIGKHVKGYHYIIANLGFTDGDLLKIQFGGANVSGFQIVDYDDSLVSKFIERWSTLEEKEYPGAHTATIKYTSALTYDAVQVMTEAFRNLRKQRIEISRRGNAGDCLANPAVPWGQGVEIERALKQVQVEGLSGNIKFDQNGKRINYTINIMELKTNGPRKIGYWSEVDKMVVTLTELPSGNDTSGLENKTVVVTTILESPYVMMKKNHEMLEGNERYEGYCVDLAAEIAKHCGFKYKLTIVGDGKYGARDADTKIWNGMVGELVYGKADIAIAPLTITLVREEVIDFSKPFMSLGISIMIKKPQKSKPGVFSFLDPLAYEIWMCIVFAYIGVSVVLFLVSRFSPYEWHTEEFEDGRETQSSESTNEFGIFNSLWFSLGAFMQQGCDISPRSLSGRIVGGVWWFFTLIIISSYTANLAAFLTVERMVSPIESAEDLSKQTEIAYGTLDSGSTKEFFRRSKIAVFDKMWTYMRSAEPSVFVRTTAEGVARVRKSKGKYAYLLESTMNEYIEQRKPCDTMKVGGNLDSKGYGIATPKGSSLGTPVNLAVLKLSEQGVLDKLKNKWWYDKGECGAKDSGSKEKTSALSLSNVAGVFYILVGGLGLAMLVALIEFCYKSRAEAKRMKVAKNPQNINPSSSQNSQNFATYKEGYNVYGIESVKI
Experimental: as §1, §2, §3, §4

[1] = Solubility observation during synthesis/characterisation; format: physicochemical; details: qualitative, NMR in DMSO-d6 could not be run
Experimental: The synthesis of target compounds is carried out according to the sequence of reactions detailed in Scheme 1. SnCl4-catalyzed Friedel-Craft acylation of ethyl 3,4-methylenedioxy phenylacetate 1 with either 2-fluoro-4-nitrobezoylchloride 2a or 3-methoxy-4-nitrobenzoyl chloride 2b in dry CH2Cl2 yields the required ketoester intermediates 3a and 3b in 40% and 48% yields, respectively. […] Acetic acid promoted a cascade reaction (imine formation followed by cyclization) of ethyl 4,5-(methylenedioxy)-2-[…] with hydrazine hydrate in ethanol afforded 2,3-BZD-4 in a 33% yield. High yield and purity of 2,3-BZD-1 were achieved via Pd-catalyzed hydrogenation of the nitro group in 2,3-BZD-4 in methanol. The generated compounds have physical and spectral (1H-NMR) data consistent with their proposed structures.
5% Pd/C (50 mg) was added to a solution containing 1-(2-floro-4-nitrophenyl)-7,8-(methylenedioxy)-3,5-dihydro-4H-2,3-benzodiazepin-4-one (2,3-BDZ-3) (64.80 mg, 0.19 mmol) in methanol (5 mL) and formic acid (2 mL). After 48 h of stirring at ambient temperature in a hydrogen atmosphere, the Pd/C was filtered out, and the solvent was removed under pressure. The resultant residue was washed with methanol and then with diethyl ether. […]

AMPA receptor subunits = assay: Whole-cell patch-clamp recording, statements over all tested AMPAR subunits (GluA1, GluA1/2, GluA2, GluA2/3) in HEK293T cells; format: cell-based; details: 16 µM compound; for Effect on deactivation rate of the AMPAR subunits examined: 1 ms glutamate
Experimental: as §1, §2, §3, §4

GluA1/2 = target: T3, GluA1/2 (Rattus norvegicus, UniProt P19490+P19491); assay: Whole-cell patch-clamp recording of heteromeric GluA1/2 AMPAR expressed in HEK293T cells; format: cell-based; details: for Amplitude with compound: 10 mM glutamate + 16 µM compound, mean±SEM; for Amplitude with compound / A/AI (current amplitude ratio without/with compound) / t deact (weighted deactivation time constant) / t des (weighted desensitization time constant) / Amplitude, applying glutamate alone after compound: n=8; for A/AI (current amplitude ratio without/with compound): 10 mM glutamate; for t deact (weighted deactivation time constant): 1 ms 10 mM glutamate + 16 µM compound; for t des (weighted desensitization time constant): 500 ms 10 mM glutamate + 16 µM compound; for Amplitude, applying glutamate alone after compound: washout/recovery
T3 construct: expressed in transfected cells; host or cells: HEK293T
T3 sequence (P19490 19-907 isoform P19490-2 limits assumed): as the sequence (P19490 19-907 isoform P19490-2 limits assumed) above
T3 sequence (P19491 22-883 isoform P19491-2 limits assumed): as the sequence (P19491 22-883 isoform P19491-2 limits assumed) above
Experimental: as §1, §2, §3, §4

GluA2/3 = target: T4, GluA2/3 (Rattus norvegicus, UniProt P19491+P19492); assay: Whole-cell patch-clamp recording of heteromeric GluA2/3 AMPAR expressed in HEK293T cells; format: cell-based; details: for Amplitude with compound: 10 mM glutamate + 16 µM compound, mean±SEM; for Amplitude with compound / A/AI (current amplitude ratio without/with compound) / t deact (weighted deactivation time constant) / t des (weighted desensitization time constant) / Amplitude, applying glutamate alone after compound: n=8; for A/AI (current amplitude ratio without/with compound): 10 mM glutamate; for t deact (weighted deactivation time constant): 1 ms 10 mM glutamate + 16 µM compound; for t des (weighted desensitization time constant): 500 ms 10 mM glutamate + 16 µM compound; for Amplitude, applying glutamate alone after compound: washout/recovery
T4 construct: expressed in transfected cells; host or cells: HEK293T
T4 sequence (P19491 22-883 isoform P19491-2 limits assumed): as above
T4 sequence (P19492 23-888 isoform P19492-2 limits assumed): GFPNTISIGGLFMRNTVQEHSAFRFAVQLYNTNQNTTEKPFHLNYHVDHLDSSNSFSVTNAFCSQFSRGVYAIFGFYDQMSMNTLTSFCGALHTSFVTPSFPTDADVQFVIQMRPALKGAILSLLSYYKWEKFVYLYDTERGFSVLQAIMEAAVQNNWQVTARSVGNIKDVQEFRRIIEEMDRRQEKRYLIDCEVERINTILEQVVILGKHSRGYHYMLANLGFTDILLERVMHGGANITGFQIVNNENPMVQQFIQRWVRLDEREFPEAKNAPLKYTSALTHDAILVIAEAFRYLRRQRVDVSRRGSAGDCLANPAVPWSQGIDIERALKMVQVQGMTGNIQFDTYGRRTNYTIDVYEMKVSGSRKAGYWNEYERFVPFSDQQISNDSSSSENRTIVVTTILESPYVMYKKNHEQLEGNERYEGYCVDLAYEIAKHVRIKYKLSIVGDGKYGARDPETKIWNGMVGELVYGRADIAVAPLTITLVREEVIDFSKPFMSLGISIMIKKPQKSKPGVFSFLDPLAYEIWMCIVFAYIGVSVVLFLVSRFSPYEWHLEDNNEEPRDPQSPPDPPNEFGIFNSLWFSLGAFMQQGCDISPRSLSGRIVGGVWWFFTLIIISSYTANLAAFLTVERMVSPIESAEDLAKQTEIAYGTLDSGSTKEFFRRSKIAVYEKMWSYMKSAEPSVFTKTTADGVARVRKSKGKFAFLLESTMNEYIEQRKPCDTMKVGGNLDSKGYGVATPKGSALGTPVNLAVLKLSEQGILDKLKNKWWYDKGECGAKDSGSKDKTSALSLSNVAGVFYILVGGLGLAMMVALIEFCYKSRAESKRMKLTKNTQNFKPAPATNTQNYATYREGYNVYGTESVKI
Experimental: as §1, §2, §3, §4

[2] = 16 µM compound, 500 ms glutamate
[3] = log of IC50, read-out: Log IC50 (converted)
[4] = normalized peak current, -60 mV, pH 7.4, 22 °C, read-out: IC50

Row | Compound | Amplitude with compound (GluA1; -60 mV, pH 7.4, 22 °C) [pA] | A/AI (current amplitude ratio without/with compound) (GluA1; 16 µM compound) | t deact (weighted deactivation time constant) (GluA1) [ms] | t des (weighted desensitization time constant) (GluA1) [ms] | IC50 (GluA1; [3]) [µM] | IC50 (GluA1; [4]) [µM] | Amplitude, applying glutamate alone after compound (GluA1) [pA] | Amplitude with compound (GluA2; -60 mV, pH 7.4, 22 °C, n=8) [pA] | A/AI (current amplitude ratio without/with compound) (GluA2; 16 µM compound, n=8) | t deact (weighted deactivation time constant) (GluA2; n=8) [ms] | t des (weighted desensitization time constant) (GluA2; n=8) [ms] | IC50 (GluA2; [3]) [µM] | IC50 (GluA2; [4]) [µM] | Reduction in AMPAR subunit currents (AMPA receptor subunits) | Effect on deactivation rate of the AMPAR subunits examined (AMPA receptor subunits) | Amplitude with compound (GluA1/2; -60 mV, pH 7.4, 22 °C) [pA] | A/AI (current amplitude ratio without/with compound) (GluA1/2; 16 µM compound) | t deact (weighted deactivation time constant) (GluA1/2) [ms] | t des (weighted desensitization time constant) (GluA1/2) [ms] | IC50 (GluA1/2; [3]) [µM] | also measured
1 | Nc1ccc(C2=NNC(=O)Cc3cc4c(cc32)OCO4)c(F)c1 [2,3-BDZ-1, 1-(4-Amino-2-fluorophenyl)-7,8-(methylenedioxy)-3,5-dihydro-4H-2,3-benzodiazepin-4-one] | 85±7.0 | 11.08±1.0 | 6.3 ± 0.4 | 1.1 ± 0.1 | 3.24 | 3.26 | 935±39 | 108±9.0 | 12.31±1.0 | 8.7 ± 0.6 | 0.6 ± 0.05 | 3.02 | 3.02 | 11–12 fold | almost triples | 51±7.0 | 11.21±1.0 | 6.7 ± 0.6 | 2.7 ± 0.2 | 3.02 | Reduction of desensitization rate (GluA1; [2]): ~2 fold; Reduction of desensitization rate (GluA2; [2]): 4–5 fold; Amplitude, applying glutamate alone after compound (GluA2; washout/recovery, glutamate alone after compound, n=8): 1322±33 pA; Solubility (observation) [1]: low solubility; Solubility (observation) ([1]; listed as 2,3-BZD-1): highly insoluble; Reduction of desensitization rate (GluA1/2; [2]): ~2 fold; IC50 (GluA1/2; [4]): 3.05 µM; Amplitude, applying glutamate alone after compound (GluA1/2): 575±35 pA; Reduction of desensitization rate (GluA2/3; [2]): 3–4 fold; Amplitude with compound (GluA2/3; -60 mV, pH 7.4, 22 °C): 49±4 pA; A/AI (current amplitude ratio without/with compound) (GluA2/3; 16 µM compound): 12.09±1.0; t deact (weighted deactivation time constant) (GluA2/3): 8.1 ± 0.7 ms; t des (weighted desensitization time constant) (GluA2/3): 0.8 ± 0.08 ms; IC50 (GluA2/3; [3]): 3.09 µM; IC50 (GluA2/3; [4]): 3.09 µM; Amplitude, applying glutamate alone after compound (GluA2/3): 589±33 pA
2 | O=C1Cc2cc3c(cc2C(c2ccc([N+](=O)[O-])cc2F)=NN1)OCO3 [2,3-BDZ-3] | 237±12 | 3.94±0.2 | 2.4 ± 0.1 | 2.1 ± 0.1 | 5.75 | 5.8 | 936±46 | 326±17 | 4.16±0.2 | 2.8 ± 0.1 | 2.3 ± 0.1 | 5.75 | 5.74 | 4 fold | no change | 144±11 | 3.98±0.2 | 2.8 ± 0.2 | 4.9 ± 0.3 | 5.75 | melting point: 182 to 184 °C; Effect on desensitization rate (AMPA receptor subunits): no change; IC50 (GluA1/2; [4]): 5.79 µM; Amplitude, applying glutamate alone after compound (GluA1/2): 569±43 pA; Amplitude with compound (GluA2/3; -60 mV, pH 7.4, 22 °C): 130±12 pA; A/AI (current amplitude ratio without/with compound) (GluA2/3; 16 µM compound): 4.08±0.3; t deact (weighted deactivation time constant) (GluA2/3): 2.9 ± 0.2 ms; t des (weighted desensitization time constant) (GluA2/3): 2.5 ± 0.2 ms; IC50 (GluA2/3; [3]): 5.75 µM; IC50 (GluA2/3; [4]): 5.76 µM; Amplitude, applying glutamate alone after compound (GluA2/3): 525±22 pA
